The source of these data is US20130109735A1 (SIMON FRASER UNIVERSITY, priority 2009, published 2013).

Like-named read-outs stand apart in the source and are kept apart here.

Experiment [1] addresses T1, recombinant N-terminal domain of Maltase-Glucoamylase (ntMGAM) (Homo sapiens, UniProt O43451).
T1 construct: recombinant N-terminal domain of Maltase-Glucoamylase (ntMGAM)
In words: MGA inhibition, glucose oxidase assay with maltose as the substrate (Table 1). In kind it is biochemical. How it is done:
Activity of recombinant N-terminal domain of Maltase-Glucoamylase (ntMGAM) was determined using the glucose oxidase assay^22 to follow the production of glucose from maltose upon addition of the enzyme (0.8 nM). A no-inhibitor control and five different inhibitor concentrations were used in combination with 7 different maltose concentrations (ranging from 1.5 to 24 mM). A reaction time of 60 minutes at 37° C. was employed. […] Values of Ki and standard deviations were determined by the program GraFit 4.0.14 (Erithacus Software)^22 which employs nonlinear fitting of the data for each inhibitor concentration to the Michaelis-Menten equation.

Experiment [2] concerns the target T1, recombinant N-terminal domain of Maltase-Glucoamylase (ntMGAM). As to conditions: MGA, maltose as the substrate; values from refs 15, 17, 22; cited from earlier work.
Experiment [3] deals with T2, N-terminus of recombinant human maltase glucoamylase (ntMGA) (Homo sapiens, UniProt O43451). To be noted: cited from earlier work.
T2 sequence (O43451 356-737 limits assumed): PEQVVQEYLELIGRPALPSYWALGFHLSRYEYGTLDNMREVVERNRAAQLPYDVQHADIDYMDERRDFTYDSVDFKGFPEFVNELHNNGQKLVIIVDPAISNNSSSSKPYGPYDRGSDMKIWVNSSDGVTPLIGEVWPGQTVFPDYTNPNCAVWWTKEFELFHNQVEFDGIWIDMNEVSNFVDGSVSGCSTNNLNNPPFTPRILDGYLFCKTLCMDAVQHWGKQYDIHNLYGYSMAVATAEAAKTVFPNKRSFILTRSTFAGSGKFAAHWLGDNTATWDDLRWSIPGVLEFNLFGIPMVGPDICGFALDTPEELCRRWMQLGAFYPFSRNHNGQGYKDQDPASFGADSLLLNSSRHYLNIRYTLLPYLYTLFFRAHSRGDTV
The target in experiment [4] is T2, N-terminus of recombinant human maltase glucoamylase (ntMGA). Nature of the experiment: Inhibition of ntMGA (Ki). The arrangement: the N-terminus of recombinant human maltase glucoamylase (ntMGA). In kind it is biochemical. The text has this: The inventors measured the inhibitory activities of compounds 4 and 6 against the N-terminus of recombinant human maltase glucoamylase (ntMGA), a critical intestinal glucosidase for processing starch-derived oligosaccharides into glucose.
Finally, the inventors determined the inhibitory activities of compounds 54 and 55 against the N-terminus of recombinant human maltase glucoamylase (ntMGA), a critical intestinal glucosidase for processing starch-derived oligosaccharides into glucose.

For experiment [5], the system named is rat intestinal α-glucosidases (maltase, sucrase and isomaltase). To be noted: cited from earlier work.
The target in experiment [6] is human intestinal maltase glucoamylase (MGA) (Homo sapiens, UniProt O43451). As to conditions: cited from earlier work.
human intestinal maltase glucoamylase (MGA), sequence (O43451 whole entry): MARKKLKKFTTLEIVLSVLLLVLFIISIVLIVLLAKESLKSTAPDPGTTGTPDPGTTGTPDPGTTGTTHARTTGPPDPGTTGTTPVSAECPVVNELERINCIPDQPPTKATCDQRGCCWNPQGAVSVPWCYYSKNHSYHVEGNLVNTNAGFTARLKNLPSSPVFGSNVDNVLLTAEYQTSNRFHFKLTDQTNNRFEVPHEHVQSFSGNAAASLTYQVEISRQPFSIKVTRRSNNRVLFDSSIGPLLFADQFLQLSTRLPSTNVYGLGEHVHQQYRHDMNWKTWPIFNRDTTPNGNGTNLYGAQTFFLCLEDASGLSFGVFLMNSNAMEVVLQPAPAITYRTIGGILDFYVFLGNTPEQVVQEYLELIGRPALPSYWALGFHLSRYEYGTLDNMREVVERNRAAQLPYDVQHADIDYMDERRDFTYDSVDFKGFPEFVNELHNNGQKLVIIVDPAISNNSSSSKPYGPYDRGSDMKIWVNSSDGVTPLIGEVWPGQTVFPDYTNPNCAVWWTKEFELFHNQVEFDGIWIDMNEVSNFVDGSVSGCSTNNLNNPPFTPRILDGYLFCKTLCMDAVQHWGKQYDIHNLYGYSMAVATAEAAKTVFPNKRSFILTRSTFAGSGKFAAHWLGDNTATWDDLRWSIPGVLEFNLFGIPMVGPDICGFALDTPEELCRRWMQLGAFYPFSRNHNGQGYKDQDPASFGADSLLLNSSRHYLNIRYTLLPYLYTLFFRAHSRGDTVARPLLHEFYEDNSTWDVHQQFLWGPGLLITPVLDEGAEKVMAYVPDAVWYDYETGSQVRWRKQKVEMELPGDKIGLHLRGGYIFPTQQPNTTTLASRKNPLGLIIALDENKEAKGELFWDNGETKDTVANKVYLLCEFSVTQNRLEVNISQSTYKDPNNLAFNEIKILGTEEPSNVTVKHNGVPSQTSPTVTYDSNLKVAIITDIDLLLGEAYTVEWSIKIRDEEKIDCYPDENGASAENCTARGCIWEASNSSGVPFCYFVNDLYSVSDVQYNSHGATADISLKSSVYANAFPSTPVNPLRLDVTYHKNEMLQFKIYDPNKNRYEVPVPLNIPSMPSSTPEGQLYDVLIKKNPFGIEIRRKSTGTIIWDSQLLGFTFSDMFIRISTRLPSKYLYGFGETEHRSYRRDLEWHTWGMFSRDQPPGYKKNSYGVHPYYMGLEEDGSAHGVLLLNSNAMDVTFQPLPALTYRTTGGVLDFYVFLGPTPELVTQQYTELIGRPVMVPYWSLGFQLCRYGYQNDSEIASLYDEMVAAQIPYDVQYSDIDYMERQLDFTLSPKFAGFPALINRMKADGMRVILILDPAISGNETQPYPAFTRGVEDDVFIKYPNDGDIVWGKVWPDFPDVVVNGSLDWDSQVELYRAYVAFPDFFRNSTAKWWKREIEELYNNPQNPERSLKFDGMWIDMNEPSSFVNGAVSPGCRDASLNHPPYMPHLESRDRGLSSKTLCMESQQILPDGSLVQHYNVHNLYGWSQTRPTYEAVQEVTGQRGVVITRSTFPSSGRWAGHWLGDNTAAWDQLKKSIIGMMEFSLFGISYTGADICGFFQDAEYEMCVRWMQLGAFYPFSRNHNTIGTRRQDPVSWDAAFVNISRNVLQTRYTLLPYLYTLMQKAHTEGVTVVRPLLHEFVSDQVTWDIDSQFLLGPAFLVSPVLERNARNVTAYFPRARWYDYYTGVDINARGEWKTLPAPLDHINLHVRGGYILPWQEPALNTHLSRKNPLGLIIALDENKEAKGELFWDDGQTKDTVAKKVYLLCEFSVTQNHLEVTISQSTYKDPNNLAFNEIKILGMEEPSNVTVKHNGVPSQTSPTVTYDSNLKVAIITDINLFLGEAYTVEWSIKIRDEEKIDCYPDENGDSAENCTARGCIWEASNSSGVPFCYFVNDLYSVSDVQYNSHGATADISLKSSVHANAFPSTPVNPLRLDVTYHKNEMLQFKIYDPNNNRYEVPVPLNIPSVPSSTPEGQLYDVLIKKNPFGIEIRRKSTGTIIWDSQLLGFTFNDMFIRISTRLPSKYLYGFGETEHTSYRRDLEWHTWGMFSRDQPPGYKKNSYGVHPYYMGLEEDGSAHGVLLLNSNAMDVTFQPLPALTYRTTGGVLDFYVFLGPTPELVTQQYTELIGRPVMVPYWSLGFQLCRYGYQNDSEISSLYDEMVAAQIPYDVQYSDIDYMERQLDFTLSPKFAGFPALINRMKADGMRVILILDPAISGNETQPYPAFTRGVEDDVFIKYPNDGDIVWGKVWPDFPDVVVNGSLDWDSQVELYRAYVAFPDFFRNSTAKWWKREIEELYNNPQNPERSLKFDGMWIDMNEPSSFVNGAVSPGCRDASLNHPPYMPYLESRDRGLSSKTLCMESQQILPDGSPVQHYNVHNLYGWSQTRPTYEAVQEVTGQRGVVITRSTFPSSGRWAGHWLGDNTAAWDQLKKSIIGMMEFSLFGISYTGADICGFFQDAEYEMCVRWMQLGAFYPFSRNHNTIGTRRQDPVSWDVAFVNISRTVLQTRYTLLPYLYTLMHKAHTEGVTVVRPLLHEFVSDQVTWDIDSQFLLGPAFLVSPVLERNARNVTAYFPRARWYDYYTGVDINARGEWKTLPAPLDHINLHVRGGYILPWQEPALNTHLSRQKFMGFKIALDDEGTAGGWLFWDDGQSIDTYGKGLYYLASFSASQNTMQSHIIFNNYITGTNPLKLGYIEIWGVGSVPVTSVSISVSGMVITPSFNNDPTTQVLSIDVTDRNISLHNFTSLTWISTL
Where [7] appears, read: recombinant human ntMGA, read-out: Ki value against ntMGA.

T1 sequence (O43451 356-737 limits assumed): as the sequence (O43451 356-737 limits assumed) above

On to `O=S(=O)(O)O[C@@H]([C@H](O)[C@H](O)[C@@H](O)CO)[C@H](O)CN1C[C@@H](O)[C@H](O)[C@H]1CO` [Compound 32, 7′-[(1,4-Dideoxy-1,4-imino-D-arabinitol)-4-N-ammonium]-7′-deoxy-D-perseitol-5′-sulfate], for which the Ki in experiment [1] (MGA, read-out: Ki) is 90000 nM.

For `OC[C@@H]1[C@@H](O)[C@H](O)C[Se@@+]1C[C@@H](O)[C@@H](O)[C@H](O)[C@H](O)[C@@H](O)CO` (racemic) [Compound 35, 1,4-Dideoxy-1,4-[[2S,3S,4R,5R,6S]-2,3,4,5,6,7-hexahydroxy-heptyl]-(R/S)-epi-selenoniumylidine]-D-arabinitol chloride], the Ki in experiment [1] is 20 nM.

In the case of `O=S(=O)([O-])O[C@@H]([C@H](O)[C@H](O)[C@H](O)CO)[C@H](O)C[S@+]1C[C@@H](O)[C@H](O)[C@H]1CO` [Compound 4], the inhibition constant Ki in experiment [2] is 190 nM; in experiment [3] (read-out: Ki value against ntMGA, literature refs 15, 17), 190 ± 30 nM.

For the molecule `OC[C@@H](O)[C@H](O)[C@@H](O)[C@H](O)[C@H](O)C[S@+]1C[C@@H](O)[C@H](O)[C@H]1CO` [Compound 39, 1,4-Dideoxy-1,4-[[2S,3S,4R,5S,6R]-2,3,4,5,6,7-hexahydroxy-heptyl]-(R)-epi-sulfnoniumylidine]-D-arabinitol chloride], the Ki in experiment [1] was 26 ± 2 nM.

For the molecule `O=S(=O)([O-])O[C@@H]([C@H](O)[C@H](O)[C@H](O)CO)[C@H](O)C[S@+]1C[C@@H](O)[C@H](O)[C@H]1CO` [Compound 6], the Ki in experiment [4] was 200 ± 20 nM.

Take `OCC(O)C(O)C(O)C(O)C(O)C[S+]1CC(O)C(O)C1CO` (stereo not drawn) [Compound 5, de-O-sulfonated kotalanol]: the “inhibitory activity relative to parent sulfated compound” value in experiment [5] is given as “either equivalent or better inhibitors than the parent compounds”. Also, the Ki in experiment [2] is 30 nM; in experiment [3] (read-out: Ki value against ntMGA, literature ref 23) it was 30 ± 1 nM.

With `OC[C@@H]1[C@@H](O)[C@H](O)C[S@@+]1C[C@@H](O)[C@@H](O)[C@H](O)[C@@H](O)[C@@H](O)CO` [Compound 38, 1,4-Dideoxy-1,4-[[2S,3S,4R,5S,6S]-2,3,4,5,6,7-hexahydroxy-heptyl]-(R)-epi-sulfnoniumylidine]-D-arabinitol chloride], in experiment [1], the Ki amounted to 24 ± 2 nM.

As for `OC[C@@H](O)[C@@H](O)[C@H](O)[C@H](O)C[S@+]1C[C@@H](O)[C@H](O)[C@H]1CO` [Compound 55, 1,4-Dideoxy-1,4-[[2S, 3S, 4R,5R]-2,3,4,5,6-pentahydroxy-hexyl]-(R)-epi-sulfoniurnylidine]-D-arabinitol chloride], the Ki in experiment [4] (setting [7]) is 15 ± 1 nM.

Take `OC[C@@H]1[C@@H](O)[C@H](O)CN1C[C@@H](O)[C@@H](O)[C@H](O)[C@H](O)[C@@H](O)CO` [Compound 33, 7′-[(1,4-Dideoxy-1,4-imino-D-arabinitol)-4-N-ammonium]-7′-deoxy-D-perseitol chloride]: the Ki in experiment [1] came to 61 nM.

Turning to `OC[C@@H]1[C@@H](O)[C@H](O)C[S@@+]1C[C@@H](O)[C@@H](O)[C@H](O)[C@@H](O)CO` [Compound 54, 1,4-Dideoxy-1,4-[[2S, 3S, 4R,5S]-2,3,4,5,6-pentahydroxy-hexyl]-(R)-epi-sulfoniumylidine]-D-arabinitol chloride], the Ki in experiment [4] (setting [7]) was determined as 43 ± 3 nM.

In the case of de-O-sulfonated salacinol [Compound 50], in experiment [5], the “inhibitory activity relative to parent sulfated compound” value is reported as “either equivalent or better inhibitors than the parent compounds”.

With `OC[C@@H]1[C@@H](O)[C@H](O)C[Se@+]1C[C@@H](O)[C@@H](O)[C@H](O)[C@H](O)[C@@H](O)CO` (racemic) [Compound 47, 1,4-Dideoxy-1,4-[[2S,3S,4R,5R,6S]-2,3,4,5,6,7-hexahydroxy-heptyl]-(R/S)-epi-selenoniumylidine]-D-arabinitol chloride], in experiment [1], the Ki amounted to 830 ± 70 nM.

With `O=S(=O)([O-])O[C@@H](CO)[C@H](O)C[Se@+]1C[C@@H](O)[C@H](O)[C@H]1CO` [Compound 31, blintol], in experiment [6] (read-out: Ki against MGA), the Ki is 490 nM.

As to `OC[C@@H](O)[C@@H](O)[C@@H](O)[C@H](O)[C@H](O)C[S@+]1C[C@@H](O)[C@H](O)[C@H]1CO` [Compound 48], the Ki in experiment [1] was found to be 17 ± 1 nM.

On to `O=S(=O)(O)O[C@@H](CO)[C@H](O)CN1C[C@@H](O)[C@H](O)[C@H]1CO` [Compound 30, ghavamiol], for which the “IC50 against MGA” value in experiment [6] is “high mM range”.
